In ChEMBL document CHEMBL1201862, “PubChem BioAssay data set” (2004):
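Results reflect a 48-hour exposure of cells in 96-well plates to compound at five concentrations. GI50 = concentration required for 50% inhibition of growth.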 Active and inactive are the calls of the source. No stated cut-off is given here; in the data, active = GI50 up to about 1.1 µM and inactive = higher.

Tests used:
Assay in all cases: inhibition of tumour cell growth, NCI panel, 48 h
HOP-62 = tested on: HOP-62
NCI-H460 = tested on: NCI-H460
OVCAR-5 = tested on: OVCAR-5
SF-539 = tested on: SF-539
HCT-116 = tested on: HCT-116
IGROV-1 = tested on: IGROV-1
KM12 = tested on: KM12
ACHN = tested on: ACHN
SR = tested on: SR
Malme-3M = tested on: Malme-3M
HT-29 = tested on: HT-29
SK-MEL-28 = tested on: SK-MEL-28
786-0 = tested on: 786-0
CAKI-1 = tested on: CAKI-1
TK-10 = tested on: TK-10
HCC 2998 = tested on: HCC 2998
SNB-78 = tested on: SNB-78
Hs-578T = tested on: Hs-578T
BT-549 = tested on: BT-549
MDA-MB-231 = tested on: MDA-MB-231

SMILES	GI50 (HOP-62)	GI50 (NCI-H460)	GI50 (OVCAR-5)	GI50 (SF-539)	GI50 (HCT-116)	GI50 (IGROV-1)	GI50 (KM12)	GI50 (ACHN)	GI50 (SR)	GI50 (Malme-3M)	GI50 (HT-29)	GI50 (SK-MEL-28)	GI50 (786-0)	GI50 (CAKI-1)	GI50 (TK-10)	GI50 (HCC 2998)	GI50 (SNB-78)	GI50 (Hs-578T)	GI50 (BT-549)	GI50 (MDA-MB-231)
COc1ccc2nc3cc(Cl)ccc3c(Sc3ccc(NC(C)=O)cc3)c2c1	> 41.7 µM (inactive)	> 26.3 µM (inactive)	> 29 µM (inactive)	12.3 µM (inactive)	17.9 µM (inactive)	> 32.4 µM (inactive)	9.33 µM (inactive)	4.86 µM (inactive)	3.66 µM (inactive)	> 35.2 µM (inactive)	92.3 µM (inactive)	12.8 µM (inactive)	8.15 µM (inactive)	> 27 µM (inactive)	> 36.2 µM (inactive)	2.74 µM (inactive)	5.6 µM (inactive)	–	–	–
COc1cc2c(oc(=O)c3cc4ccoc4c(OC)c32)c2cccc(O)c12	> 100 µM (inactive)	> 100 µM (inactive)	> 100 µM (inactive)	> 100 µM (inactive)	> 100 µM (inactive)	> 100 µM (inactive)	> 100 µM (inactive)	> 100 µM (inactive)	> 100 µM (inactive)	> 100 µM (inactive)	> 100 µM (inactive)	> 100 µM (inactive)	> 100 µM (inactive)	> 100 µM (inactive)	> 100 µM (inactive)	> 100 µM (inactive)	> 100 µM (inactive)	–	–	–
CCC1CCc2c(c(=O)oc3c2cc(OC)c2cccc(OC)c23)C1 (centres undefined)	60.5 µM (inactive)	51.1 µM (inactive)	> 100 µM (inactive)	58.6 µM (inactive)	33.4 µM (inactive)	> 100 µM (inactive)	47.8 µM (inactive)	87.7 µM (inactive)	38.1 µM (inactive)	56.9 µM (inactive)	33.4 µM (inactive)	> 100 µM (inactive)	> 100 µM (inactive)	> 100 µM (inactive)	> 100 µM (inactive)	77.1 µM (inactive)	> 100 µM (inactive)	–	–	–
CC(=O)OC1COC(N2C(=O)C(=O)c3cc(Br)ccc32)C(OC(C)=O)C1OC(C)=O (centres undefined)	> 100 µM (inactive)	> 100 µM (inactive)	–	> 100 µM (inactive)	–	> 100 µM (inactive)	> 100 µM (inactive)	> 100 µM (inactive)	> 100 µM (inactive)	> 100 µM (inactive)	> 100 µM (inactive)	> 100 µM (inactive)	> 100 µM (inactive)	> 100 µM (inactive)	> 100 µM (inactive)	> 100 µM (inactive)	> 100 µM (inactive)	–	–	–
CCCCCCCCC/C=C1\CCC(CN(C)C)C1=O (centres undefined)	2.08 µM (inactive)	3.43 µM (inactive)	14.8 µM (inactive)	1.79 µM (inactive)	1.8 µM (inactive)	2.63 µM (inactive)	1.64 µM (inactive)	2.2 µM (inactive)	2.43 µM (inactive)	3.03 µM (inactive)	1.7 µM (inactive)	2.03 µM (inactive)	0.281 µM (active)	2.25 µM (inactive)	2.18 µM (inactive)	3.5 µM (inactive)	2.37 µM (inactive)	–	–	–
CN1C(=O)CNS1(=O)=O	> 100 µM (inactive)	> 100 µM (inactive)	> 100 µM (inactive)	> 100 µM (inactive)	> 100 µM (inactive)	> 100 µM (inactive)	> 100 µM (inactive)	> 100 µM (inactive)	> 100 µM (inactive)	> 100 µM (inactive)	> 100 µM (inactive)	> 100 µM (inactive)	> 100 µM (inactive)	–	> 100 µM (inactive)	> 100 µM (inactive)	> 100 µM (inactive)	–	–	–
Cc1cc(Cl)cc2c1NC(=O)C2(O)CC(=O)c1ccco1 (centres undefined)	> 100 µM (inactive)	> 100 µM (inactive)	> 100 µM (inactive)	> 100 µM (inactive)	> 77.3 µM (inactive)	99.3 µM (inactive)	> 75.9 µM (inactive)	> 100 µM (inactive)	0.506 µM (active)	> 48.5 µM (inactive)	> 79.6 µM (inactive)	> 70 µM (inactive)	54.7 µM (inactive)	> 100 µM (inactive)	> 100 µM (inactive)	> 100 µM (inactive)	> 100 µM (inactive)	88.9 µM (inactive)	> 100 µM (inactive)	35.3 µM (inactive)
COc1ccccc1NC(=O)C1=C(C)NC(C)=C(C(=O)Nc2ccccc2OC)C1c1ccccc1OC	> 100 µM (inactive)	97.3 µM (inactive)	> 100 µM (inactive)	> 100 µM (inactive)	38.9 µM (inactive)	> 100 µM (inactive)	> 100 µM (inactive)	74.5 µM (inactive)	83.2 µM (inactive)	> 100 µM (inactive)	> 100 µM (inactive)	> 100 µM (inactive)	> 100 µM (inactive)	> 100 µM (inactive)	> 100 µM (inactive)	> 100 µM (inactive)	> 100 µM (inactive)	–	–	–
O=[N+]([O-])c1nc(-c2ccccn2)[nH]c1[N+](=O)[O-]	> 100 µM (inactive)	36.6 µM (inactive)	> 100 µM (inactive)	39.6 µM (inactive)	22.3 µM (inactive)	> 100 µM (inactive)	> 100 µM (inactive)	64.3 µM (inactive)	32.2 µM (inactive)	57.4 µM (inactive)	47.5 µM (inactive)	54.7 µM (inactive)	–	57.7 µM (inactive)	> 100 µM (inactive)	96.4 µM (inactive)	> 100 µM (inactive)	–	–	–
Nc1ccc(S(=O)(=O)Nc2cnc3c(Cl)cccc3n2)cc1 [CHLORSULFAQUINOXALINE]	78.9 µM (inactive)	129 µM (inactive)	192 µM (inactive)	126 µM (inactive)	7.28 µM (inactive)	2.58 µM (inactive)	147 µM (inactive)	107 µM (inactive)	56.4 µM (inactive)	164 µM (inactive)	248 µM (inactive)	151 µM (inactive)	86.3 µM (inactive)	56.2 µM (inactive)	41.6 µM (inactive)	99.5 µM (inactive)	151 µM (inactive)	63.5 µM (inactive)	> 60.5 µM (inactive)	> 69.7 µM (inactive)
COC(=O)C(C(=O)C(N)=O)c1csc(-n2nc(-c3ccccc3)cc2-c2ccccc2)n1 (centres undefined)	> 10 µM (inactive)	> 31.6 µM (inactive)	> 100 µM (inactive)	> 31.6 µM (inactive)	> 31.6 µM (inactive)	17.3 µM (inactive)	22.6 µM (inactive)	> 31.6 µM (inactive)	> 10 µM (inactive)	> 31.6 µM (inactive)	41.9 µM (inactive)	> 31.6 µM (inactive)	> 31.6 µM (inactive)	10.6 µM (inactive)	21.5 µM (inactive)	> 31.6 µM (inactive)	> 31.6 µM (inactive)	–	–	–
O=S(=O)(/C=C/c1ccc(F)cc1)Cc1ccc(CS(=O)(=O)/C=C/c2ccc(F)cc2)cc1	> 100 µM (inactive)	> 100 µM (inactive)	> 100 µM (inactive)	> 100 µM (inactive)	> 100 µM (inactive)	> 100 µM (inactive)	> 100 µM (inactive)	> 100 µM (inactive)	> 100 µM (inactive)	> 100 µM (inactive)	> 100 µM (inactive)	> 100 µM (inactive)	> 100 µM (inactive)	> 100 µM (inactive)	> 100 µM (inactive)	> 100 µM (inactive)	> 100 µM (inactive)	–	–	–
[N-]=[N+]=Nc1c(Br)c(=O)[nH]c(=O)n1COCCO	> 100 µM (inactive)	> 100 µM (inactive)	> 100 µM (inactive)	> 100 µM (inactive)	> 100 µM (inactive)	> 100 µM (inactive)	> 100 µM (inactive)	> 100 µM (inactive)	> 100 µM (inactive)	> 100 µM (inactive)	> 100 µM (inactive)	> 100 µM (inactive)	> 100 µM (inactive)	> 100 µM (inactive)	> 100 µM (inactive)	> 100 µM (inactive)	> 100 µM (inactive)	–	–	–
O=C(CC(=O)N1N=C(c2ccccc2)C(/N=N/c2ccc(Cl)cc2)C1=O)Nc1ccccc1Cl (centres undefined)	20.1 µM (inactive)	42.1 µM (inactive)	> 100 µM (inactive)	24.4 µM (inactive)	23.6 µM (inactive)	36.4 µM (inactive)	33.8 µM (inactive)	15.6 µM (inactive)	24.7 µM (inactive)	–	37.4 µM (inactive)	20.6 µM (inactive)	12.2 µM (inactive)	19.5 µM (inactive)	16.6 µM (inactive)	68.7 µM (inactive)	64 µM (inactive)	–	–	–
